Laboratory results taken from paper PMC5855359, “A Statistical Thermodynamic Model for Ligands Interacting With Ion Channels: Theoretical Model and Experimental Validation of the KCNQ2 Channel” (Frontiers in Pharmacology, 2018).

Biological target: T1, KCNQ2 (Homo sapiens, UniProt O43526)
T1 construct: WT KCNQ2 homotetrameric channel expressed in CHO cells
Test: whole-cell voltage clamp in transfected CHO cells, concentration-response of outward current potentiation
Format: cell-based

T1 sequence (O43526 whole entry): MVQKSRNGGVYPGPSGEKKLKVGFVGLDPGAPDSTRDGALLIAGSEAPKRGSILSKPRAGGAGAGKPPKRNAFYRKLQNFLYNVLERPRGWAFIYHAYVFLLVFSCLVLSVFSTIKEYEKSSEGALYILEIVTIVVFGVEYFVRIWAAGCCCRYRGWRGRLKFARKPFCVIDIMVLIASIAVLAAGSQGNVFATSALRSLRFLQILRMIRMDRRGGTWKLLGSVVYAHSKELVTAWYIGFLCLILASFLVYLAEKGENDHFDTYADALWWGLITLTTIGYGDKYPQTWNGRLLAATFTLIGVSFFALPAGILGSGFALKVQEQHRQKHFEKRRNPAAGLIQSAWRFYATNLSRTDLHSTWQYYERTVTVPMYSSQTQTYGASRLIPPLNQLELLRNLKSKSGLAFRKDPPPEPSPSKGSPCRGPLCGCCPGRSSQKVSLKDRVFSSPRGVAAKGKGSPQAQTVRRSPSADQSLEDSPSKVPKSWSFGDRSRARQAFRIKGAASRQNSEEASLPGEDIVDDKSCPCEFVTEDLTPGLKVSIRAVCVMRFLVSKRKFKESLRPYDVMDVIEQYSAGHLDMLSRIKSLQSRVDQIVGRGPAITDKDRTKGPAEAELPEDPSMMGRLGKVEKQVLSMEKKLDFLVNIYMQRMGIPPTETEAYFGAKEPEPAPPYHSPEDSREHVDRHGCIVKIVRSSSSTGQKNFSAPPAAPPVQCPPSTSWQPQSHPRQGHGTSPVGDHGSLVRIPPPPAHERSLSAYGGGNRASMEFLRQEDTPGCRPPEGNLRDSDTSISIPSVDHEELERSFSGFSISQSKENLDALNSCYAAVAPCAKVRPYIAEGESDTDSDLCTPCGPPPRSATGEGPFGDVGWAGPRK

EC50: ~5.8 µM
Compound: O=C(Nc1ccc(Cl)nc1)c1ccc(F)cc1 [ztz240, N-(6-chloro-pyridin-3-yl)-4-fluorobenzamide]
